Series [1] deals with SFTSV. Kind of series: microbe, parasite or virus in culture. The conditions noted are these: Severe fever with thrombocytopenia syndrome virus, Vero, 36 h, read-out: EC50 (Vero) against SFTSV.
Series [2] in a line: cytotoxicity by CCK8 assay. Conditions: African green monkey, Vero cells.
The test system of series [3] is SFTSV.
In series [4] the test system is SFTSV. Kind of series: microbe, parasite or virus in culture. Format: cell-based. The conditions noted are these: Severe fever with thrombocytopenia syndrome virus, Huh-7, 36 h, read-out: EC50 (Huh 7) against SFTSV.
In series [5] the target is T1, SFTSV EndoN (Dabie bandavirus, UniProt I0DF35). Kind of series: biochemical.
T1 sequence (I0DF35 20-221 limits assumed): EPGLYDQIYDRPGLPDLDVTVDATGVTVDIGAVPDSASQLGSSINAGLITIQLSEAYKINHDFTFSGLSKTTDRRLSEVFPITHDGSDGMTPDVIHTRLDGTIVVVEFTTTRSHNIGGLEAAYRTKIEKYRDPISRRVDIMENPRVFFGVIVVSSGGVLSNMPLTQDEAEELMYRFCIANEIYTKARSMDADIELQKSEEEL
In series [6] the target is T1, SFTSV EndoN. Kind of series: biochemical. Format: binding.
Series [7] has as its system SFTSV. Conditions: mouse, in vivo.
Another series addresses T2, LCMV EndoN (Lymphocytic choriomeningitis virus, UniProt P14240).
T2 sequence (P14240 26-287 limits assumed): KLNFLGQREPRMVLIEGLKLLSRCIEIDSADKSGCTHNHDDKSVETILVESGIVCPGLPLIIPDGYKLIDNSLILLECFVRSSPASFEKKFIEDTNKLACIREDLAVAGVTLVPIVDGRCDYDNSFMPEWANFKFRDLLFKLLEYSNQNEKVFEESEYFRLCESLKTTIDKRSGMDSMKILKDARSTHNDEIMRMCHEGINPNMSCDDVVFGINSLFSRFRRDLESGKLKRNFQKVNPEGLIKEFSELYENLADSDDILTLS
The series is described as follows: biochemical.

The next series has as its system GTV. The series is described as follows: microbe, parasite or virus in culture. The series is classed as cell-based. The conditions noted are these: Guertu virus, Vero, 36 h, read-out: EC50 against GTV.
Another series relates to HRTV. Kind of series: microbe, parasite or virus in culture. Conditions: Heartland virus, Vero, 36 h, read-out: EC50 against HRTV. The series is classed as cell-based.
Series [8] has as its system LCMV. The series is described as follows: organism not typed. Format: cell-based, lymphatic choriomeningitis virus. Conditions: BHK-21, read-out: EC50 against LCMV.
Series [9] concerns the target T1, SFTSV EndoN. The series is classed as biochemical.
For series [10], the system named is IAV (H1N1). Kind of series: microbe, parasite or virus in culture. The series is classed as cell-based. The conditions noted are these: Influenza A virus, H1N1, MDCK, read-out: EC50 against IAV (H1N1).
Series [11] concerns SFTSV. The series is classed as cell-based, severe fever with thrombocytopenia syndrome virus.
The subject of series [12] is IAV (H1N1). Conditions: mouse, in vivo.
For series [13], the system named is LCMV. Conditions: mouse, in vivo.
Another series is described as follows: water solubility. The series is classed as physicochemical.
The nature of series [14]: pharmacokinetic analysis in rats. Conditions: 20 mg/kg.
For series [15] the following is noted: compared with tanshinone IIA; cited from earlier work.
Setting [16] is: male, Sprague-Dawley, rat, plasma, ip.
The mark [17] stands for this setting: male, Sprague-Dawley, rat, plasma, iv.

Each structure is given as a SMILES string. Where two headings read alike, the source gives them in different places.

In the case of `CC(C)=CCc1c(O)ccc(-c2coc3cc(O)cc(O)c3c2=O)c1O` [Licoisoflavone A, licoisoflavone A], the EC50 was 3.8 µM with SFTSV [1] and 1.53 µM with SFTSV [4]. In addition, the midpoint of cytotoxicity in series [2], the CC50 at 36 h, lay at 167 µM. Moreover, the “SI (CC50/EC50)” value with SFTSV [3] is given as 44.

As to `Cc1coc2c1C(=O)C(=O)c1c-2ccc2c1CCCC2(C)C` [Tanshinone IIA, tanshinone IIA], the EC50 with SFTSV [1] is 2.86 µM; at SFTSV EndoN [5], 917 µM; on LCMV EndoN it was 597 µM; in the series with GTV it was 1.2 µM; in the series on HRTV it was 1.64 µM; in the series on LCMV [8], 4.64 µM. Also, the EC50 with IAV (H1N1) [10] turned out to be 4.02 µM. This molecule yielded a cytotoxic concentration (CC50) at 36 h in series [2] of 242 µM. For the same molecule, the affinity at SFTSV EndoN [6], expressed as Kd, was 740 µM. Further, the “expression of proinflammatory factors (TNF-α, IL-1β, IL-6, IL-18) in blood and spleen” value in the series on SFTSV [7] was “markedly decreased”. In addition, the “toxicity in mice (body weight) within 3 days” value in the series on SFTSV [7] was “neither tanshinone IIA nor T-705 exhibited obvious toxicity”. For the same molecule, the “viral copies in blood and spleen” value with SFTSV [7] is “effectively reduced”. The “SI (CC50/EC50)” value in the series on SFTSV [3] was found to be 85. On SFTSV EndoN [9], the “inhibition of cleavage of FAM-labeled ssRNA substrate” value was “significantly inhibited the cleavage”.

Turning to `COc1c(CC=C(C)C)c(O)cc2oc(=O)c(-c3ccc(O)cc3O)cc12` [Glycycoumarin, glycycoumarin], the EC50 in the series on SFTSV [1] turned out to be 1.86 µM; in the series on SFTSV [4], 3.75 µM. Besides, the cytotoxic concentration (CC50) at 36 h in [2] is 46.3 µM. The “SI (CC50/EC50)” value in the series with SFTSV [3] stood at 25.

In the case of `COc1c(/C=C/C(=O)c2ccc(O)c(CC=C(C)C)c2)ccc(O)c1O` [Licochalcone D, licochalcone D], the results for the EC50 in the series on SFTSV [1] and in the series on SFTSV [4] were 4 µM and 4.29 µM, respectively. This molecule showed a CC50 at 36 h in series [2] of 40 µM. Also, the “SI (CC50/EC50)” value in the series on SFTSV [3] was determined as 10.

As to `CC(C)=CCc1cc2c(=O)cc(-c3ccc(O)cc3)oc2cc1O` [Licoflavone A, licoflavone A], the concentration giving a half-maximal response (EC50) came out at 2.8 µM in the series with SFTSV [1] and 2.5 µM in the series with SFTSV [4]. For the same molecule, the CC50 at 36 h in series [2] is 63.8 µM. For the same molecule, the “SI (CC50/EC50)” value with SFTSV [3] was determined as 23. For the same molecule, the “stage of action in time-of-addition experiment” value (from here on “stage of action”) in the series on SFTSV [11] is “acted at both the entry and post-entry stages”.

For the molecule `O=C1c2c(O)c(=O)ccn2N([C@@H]2c3ccccc3SCc3c2ccc(F)c3F)[C@@H]2COCCN12` [Baloxavir, baloxavir, reference compound], the concentration for a half-maximal effect (EC50) with SFTSV [1] worked out at 5.66 µM; in the series with GTV, 3.74 µM; in the series with HRTV, 1.32 µM; in the series with LCMV [8], 2.63 µM; in the series on IAV (H1N1) [10], 0.00102 µM. In [2], this molecule had a CC50 at 36 h of 55.2 µM. The “SI (CC50/EC50)” value in the series on SFTSV [3] is 10. The “inhibition of cleavage of FAM-labeled ssRNA substrate” value on SFTSV EndoN [9] is “partially inhibited the cleavage”.

As for `Cc1cc(O)c2c(c1)C(=O)c1cc(O)cc(O)c1C2=O` [Emodin, emodin], the EC50 in the series with SFTSV [1] came to 2.75 µM; in the series with SFTSV [4], 1.07 µM. Further, the CC50 at 36 h in series [2] turned out to be 145 µM. Also, the “SI (CC50/EC50)” value in the series with SFTSV [3] is on record as 53. Also, the “inhibition of SFTSV in time-of-addition experiment by IFA” value in the series with SFTSV [11] was “significant inhibitory activities under the post-entry and full-time treatment patterns”.

As to `NC(=O)c1nc(F)c[nH]c1=O` [T-705, favipiravir, reference compound], in the series on SFTSV [1], the EC50 is ~47 µM. In the series with IAV (H1N1) [12], the “influence on body weight” value is recorded as “negligible influence” and the “lung pathology (H&E staining)” value was “significant pathological remission”. In the series on SFTSV [7], the “expression of proinflammatory factors (TNF-α, IL-1β, IL-6, IL-18) in blood and spleen” value was “markedly decreased”; the “toxicity in mice (body weight) within 3 days” value is “neither tanshinone IIA nor T-705 exhibited obvious toxicity”; the “viral copies in blood and spleen” value is “effectively reduced”. For the same molecule, in the series with SFTSV [11], the “stage of action” value is “comparable inhibition rate under the post-infection and full-time treatment patterns but had a negligible influence on the virions or at the entry stage”. Moreover, the “influence on body weight” value with LCMV [13] is recorded as “negligible influence”.

For the molecule `Cc1coc2c1C(=O)C(=O)c1c-2ccc2c(C)cccc12` [Tanshinone I, tanshinone I], the EC50 in the series with SFTSV [1] is 2.03 µM; on SFTSV EndoN [5], 308 µM; on LCMV EndoN, 365 µM; in the series with GTV it was 0.45 µM; in the series on HRTV it was 0.32 µM; in the series on SFTSV [4], 0.44 µM. The EC50 is 2.92 µM with LCMV [8] and 1.04 µM in the series on IAV (H1N1) [10]. Also, half-maximal cytotoxicity in [2] (CC50 at 36 h) was put at 245 µM. Besides, the “influence on body weight” value in the series with IAV (H1N1) [12] and in the series with LCMV [13] was “negligible influence” each time. Besides, the “lung pathology (H&E staining)” value in the series on IAV (H1N1) [12] is reported as “significant pathological remission”. In addition, the “viral copies in the lung” value in the series on IAV (H1N1) [12] is listed as “lowered the viral copies in the lung”. Also, the “proinflammatory factors in the lung” value in the series with IAV (H1N1) [12] (iv) is recorded as “downregulated”. The molecule further came in with a Kd at SFTSV EndoN [6] of 680 µM. Moreover, in the series on SFTSV [7], the body weight change entry is reported as “less than 10%”. Moreover, the “SI (CC50/EC50)” value in the series with SFTSV [3] was 121. For the same molecule, the water solubility entry in the series “water solubility” was “poor water solubility”. Also, the “inhibition of cleavage of FAM-labeled ssRNA substrate” value against SFTSV EndoN [9] is “significantly inhibited the cleavage”. In the series on SFTSV [11], the “inhibition of SFTSV in time-of-addition experiment by IFA” value was “significant inhibitory activities under the post-entry and full-time treatment patterns”. For the same molecule, the “stage of action” value in the series on SFTSV [11] is “acted at the post-entry stage”. The “viral copies and proinflammatory factors in the liver” value in the series on LCMV [13] (iv) is recorded as “reduced”. Moreover, in [14] (i.g. or i.p., SD rats), the bioavailability entry is “poor”. Moreover, the results for the AUC(0-t) in series [14] (setting [16]) and in series [14] (setting [17]) were 265 ng·h/mL and 412 ng·h/mL, respectively. In addition, the figures for the Cmax in [14] (setting [16]) and in [14] (setting [17]) were 12.8 ng/mL and 284 ng/mL, respectively. Further, the time of peak concentration (Tmax) in series [14] (setting [16]) amounted to 2.5 h. Also, the half-life in series [14] (setting [16]) was 35 h; in series [14] (setting [17]), 16.1 h.

With `Cc1c(S(=O)(=O)[O-])oc2c1C(=O)C(=O)c1c-2ccc2c1CCCC2(C)C.[Na+]` [tanshinone IIA sulfonate sodium], the “antiviral activity against SFTSV relative to tanshinone I or IIA” value with SFTSV [3] is given as “poorer antiviral activity”. The water solubility entry in [15] is reported as “significantly improved water solubility”.

The values above are taken from article PMC10617418, “Identification of tanshinone I as cap-dependent endonuclease inhibitor with broad-spectrum antiviral effect” (Journal of Virology, 2023).
